Source: patent US20260274892A1, “MACROCYCLIC BROAD SPECTRUM ANTIBIOTICS” (RQx Pharmaceuticals, Inc., priority 2017, published 2026)

Test system: Escherichia coli ATCC 25922
Test: Minimum inhibitory concentration (MIC), CLSI broth micro-dilution, E. coli
Assay type: cell-based
Conditions: Escherichia coli
Summary of the method: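 Colonies grown 20 h at 35° C on Trypticase Soy agar (MRSA) or Luria agar (E. coli) were suspended in cation-adjusted Mueller Hinton broth with 0.002% Tween-80. Suspensions were added at OD600 0.0005 to 10-point twofold compound dilutions, then incubated 22 h at 35° C.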

[1] = ATCC25922, 22 h, Table 6, cation adjusted Mueller Hinton Broth + 0.002% Tween-80, 35° C.
[2] = ATCC25922, 22 h, Table 7, cation adjusted Mueller Hinton Broth + 0.002% Tween-80, 35° C.

SMILES | MIC [1] [µM] | MIC [2] [µM] | also measured
Cc1nc(Oc2ccc(C(C)(C)C)cc2)nc(C)c1C(=O)N[C@@H](CCN)C(=O)N(C)[C@@H]1C(=O)N[C@@H](C)C(=O)N[C@H](C(=O)NCC#N)Cc2ccc(OCCN)c(c2)-c2cc1ccc2OCCN (racemic) [Compound 353, rac-(8S,11S,14S)-3,18-bis(2-aminoethoxy)-N-(cyanomethyl)-11-methyl-14-[methyl-[rac-(2S)-4-amino-2-[[2-(4-tert-butylphenoxy)-4,6-dimethyl-pyrimidine-5-carbonyl]amino]butanoyl]amino]-10,13-dioxo-9,12-diazatricyclo[13.3.1.12,6]icosa-1(18),2(20),3,5,15(19),16-hexaene-8-carboxamide] | – | – | MIC (ATCC25922, Table 6, cation adjusted Mueller Hinton Broth + 0.002% Tween-80, 35° C., 22 hours): 2 µM
Cc1nc(-c2ccc(C(C)(C)C)cc2)c(C(F)(F)F)cc1C(=O)N[C@@H](CCN)C(=O)N(C)[C@@H]1C(=O)N[C@@H](C)C(=O)N[C@H](C(=O)NCC#N)Cc2ccc(OCCN)c(c2)-c2cc1ccc2OCCN (racemic) [Compound 537, rac-(8S,11S,14S)-3,18-bis(2-aminoethoxy)-N-(cyanomethyl)-11-methyl-14-[methyl-[rac-(2S)-4-amino-2-[[6-(4-tert-butylphenyl)-2-methyl-5-(trifluoromethyl)pyridine-3-carbonyl]amino]butanoyl]amino]-10,13-dioxo-9,12-diazatricyclo[13.3.1.12,6]icosa-1(18),2(20),3,5,15(19),16-hexaene-8-carboxamide] | 0.25 | – | –
Cc1nc(-c2ccc(C(C)(C)C)cc2)nc(C)c1C(=O)N[C@@H](CCN)C(=O)N(C)[C@@H]1C(=O)N[C@@H](C)C(=O)N[C@H](C(=O)O)Cc2cc(OCCN)c(O)c(c2)-c2cc1ccc2OCCN (racemic) [Compound 563, rac-(8S,11S,14S)-4,18-bis(2-aminoethoxy)-3-hydroxy-11-methyl-14-[methyl-[rac-(2S)-4-amino-2-[[2-(4-tert-butylphenyl)-4,6-dimethyl-pyrimidine-5-carbonyl]amino]butanoyl]amino]-10,13-dioxo-9,12-diazatricyclo [13.3.1.12,6]icosa-1(18),2,4,6(20),15(19), 16-hexaene-8-carboxylic acid] | – | – | MIC (ATCC25922, Table 7, cation adjusted Mueller Hinton Broth + 0.002% Tween-80, 35° C., 22 hours): 0.25 µM
Cc1nc(-c2ccc(OC3CCCCCC3)cc2)nc(N)c1C(=O)N[C@@H](CCN)C(=O)N(C)[C@@H]1C(=O)N[C@@H](C)C(=O)N[C@H](C(=O)NCC#N)Cc2ccc(OCCN)c(c2)-c2cc1ccc2OCCN (racemic) [Compound 532, rac-(8S,11S,14S)-3,18-bis(2-aminoethoxy)-N-(cyanomethyl)-11-methyl-14-[methyl-[rac-(2S)-4-amino-2-[[4-amino-2-[4-(cycloheptoxy)phenyl]-6-methyl-pyrimidine-5-carbonyl]amino]butanoyl]amino]-10,13-dioxo-9,12-diazatricyclo[13.3.1.12,6]icosa-1(18),2(20),3,5,15(19),16-hexaene-8-carboxamide] | 0.063 | – | –
Cc1nc(-c2ccc(C(C)(C)C)cc2)nc(C)c1C(=O)N[C@@H](CCN)C(=O)N(C)[C@@H]1C(=O)N[C@@H](C)C(=O)N[C@H](C(=O)NCC#N)Cc2cc(OCCN)c(O)c(c2)-c2cc1ccc2O (racemic) [Compound 561, (4S,7S,10S)-10-((S)-4-amino-2-(2-(4-(tert-butyl)phenyl)-4,6-dimethylpyrimidine-5-carboxamido)-N-methylbutanamido)-25-(2-aminoethoxy)-N-(cyanomethyl)-16,26-dihydroxy-7-methyl-6,9-dioxo-5,8-diaza-1,2(1,3)-dibenzenacyclodecaphane-4-carboxamide] | – | 0.75 | –
Cc1nc(-c2ccc(C(C)(C)C)cc2)nc(C)c1C(=O)N[C@@H](CCN)C(=O)N(C)[C@@H]1C(=O)N[C@@H](C)C(=O)N[C@H](C(=O)NCC#N)Cc2ccc(O)c(c2)-c2cc1ccc2OCCNCCN (racemic) [Compound 601, rac-(8S,11S,14S)-18-[2-(2-aminoethylamino)ethoxy]-N-(cyanomethyl)-3-hydroxy-11-methyl-14-[methyl-[rac-(2S)-4-amino-2-[[2-(4-tert-butylphenyl)-4,6-dimethyl-pyrimidine-5-carbonyl]amino]butanoyl]amino]-10,13-dioxo-9,12-diazatricyclo[13.3.1.12,6]icosa-1(18),2(20),3,5,15(19),16-hexaene-8-carboxamide] | – | 0.5 | –
Cc1nc(-c2ccc(C(C)(C)C)cc2)nc(C)c1C(=O)N[C@@H](CNS(N)(=O)=O)C(=O)N(C)[C@@H]1C(=O)N[C@@H](C)C(=O)N[C@H](C(=O)NCC#N)Cc2ccc(OCCN)c(c2)-c2cc1ccc2OCCN (racemic) [Compound 572, rac-(8S,11S,14S)-3,18-bis(2-aminoethoxy)-N-(cyanomethyl)-11-methyl-14-[methyl-[rac-(2S)-2-[[2-(4-tert-butylphenyl)-4,6-dimethyl-pyrimidine-5-carbonyl]amino]-3-(sulfamoylamino)propanoyl]amino]-10,13-dioxo-9,12-diazatricyclo[13.3.1.12,6]icosa-1(18),2(20),3,5,15(19),16-hexaene-8-carboxamide] | – | 0.28 | –
Cc1nc(-c2ccc(OC3CCCCCC3)cc2)cc(N)c1C(=O)N[C@@H](CCN)C(=O)N(C)[C@@H]1C(=O)N[C@@H](C)C(=O)N[C@H](C(=O)NCC#N)Cc2ccc(OCCN)c(c2)-c2cc1ccc2OCCN (racemic) [Compound 545, rac-(8S,11S,14S)-3,18-bis(2-aminoethoxy)-N-(cyanomethyl)-11-methyl-14-[methyl-[rac-(2S)-4-amino-2-[[4-amino-6-[4-(cycloheptoxy)phenyl]-2-methyl-pyridine-3-carbonyl]amino]butanoyl]amino]-10,13-dioxo-9,12-diazatricyclo[13.3.1.12,6]icosa-1(18),2(20),3,5,15(19),16-hexaene-8-carboxamide] | 1 | – | –
Cc1nc(-c2ccc(C(C)(C)C)cc2)nc(C)c1C(=O)N[C@@H](CCN)C(=O)N(C)[C@@H]1C(=O)N[C@@H](C)C(=O)N[C@H](C(=O)NCC#N)Cc2ccc(O)c(c2)-c2cc1cc(OCCN)c2OCCN [Compound 633, (8S,11S,14S)-14-[[(2S)-4-amino-2-[[2-(4-tert-butylphenyl)-4,6-dimethyl-pyrimidine-5-carbonyl]amino]butanoyl]-methyl-amino]-17,18-bis(2-aminoethoxy)-N-(cyanomethyl)-3-hydroxy-11-methyl-10,13-dioxo-9,12-diazatricyclo[13.3.1.12,6]icosa-1(18),2(20),3,5,15(19),16-hexaene-8-carboxamide] | – | 0.047 | –
Cc1nc(-c2ccc(C(C)(C)C)cc2)nc(C)c1C(=O)N[C@@H](CCN)C(=O)N(C)[C@@H]1C(=O)N[C@@H](C)C(=O)N[C@H](C(=O)NCC#N)Cc2ccc(O)c(c2)-c2cc1ccc2OC1CCNCC1 (racemic) [Compound 608, rac-(8S,11S,14S)-N-(cyanomethyl)-3-hydroxy-11-methyl-14-[methyl-[rac-(2S)-4-amino-2-[[2-(4-tert-butylphenyl)-4,6-dimethyl-pyrimidine-5-carbonyl]amino]butanoyl]amino]-10,13-dioxo-18-(4-piperidyloxy)-9,12-diazatricyclo[13.3.1.12,6]icosa-1(18),2(20),3,5,15(19),16-hexaene-8-carboxamide] | – | 0.38 | –
